This is an account of results in patent publication US12297235B2, “Synthetic peptide compounds and methods of use” (REALTA HOLDINGS, LLC, priority 2015, dated 2025).

“Also recorded” adds a separate entry of the source. Like-named read-outs stand apart in the source and are kept apart here. Bounds are passed on as bounds.

One data set concerns HSV-1. Description: HSV-1-GFP infection of CV-1 cells, flow cytometry. It counts as cell-based. The following applies: 16 hours. Here is the method: CV-1 cells were infected with HSV-1-GFP for 16 hours. Post-infection, CV-1 cells were detected by flow cytometry (FIG. 33). […] Acyclovir (the standard of care for severe HSV-1 infections) was also added as a control at the same molar ratio.

Data set [1] is classed as biochemical, human. The settings on record: 0.77 mM peptide in factor B-depleted serum; standardized to water or DMSO; Table 6. Here is the method:
(§1) Peptides were diluted to 0.77 mM in factor B-depleted human sera (Complement Technologies, Inc.) and incubated for 1 hour at 37° C. These peptides were then diluted with GVBS^++ to equal 2.5% serum, of which 0.25 ml was combined with 0.4 ml of GVBS^++ and 0.1 ml of sensitized sheep red blood cells (RBCs) and again incubated for 1 hour at 37° C. The procedure was stopped by the addition of 4.0 ml of GVBS^−− centrifuged for 5 minutes at 1,620×g, and the absorbance of the supernatants was read at 412 nm in a spectrophotometer. The percent lysis of each sample was standardized to that of the serum only control.
(§2) The final concentration of peptide in factor B-depleted serum was 0.77 mM. Each peptide was evaluated in triplicate and the mean values are reported. […] In the hemolytic assay, soluble peptides are standardized to water and insoluble peptides standardized to DMSO.
(§3) Polar Assortant peptides were serially diluted in undiluted factor B-depleted human sera (Complement Technologies, Inc.) and incubated for 1 hour at 37° C. Water, GVBS^++ and DMSO were included as controls. These peptides were then diluted with GVBS^++ to equal 2.5% serum, of which 0.25 ml was combined with 0.4 ml of GVBS^++ and 0.1 ml of sensitized sheep red blood cells (RBCs) and again incubated for 1 hour at 37° C. The procedure was stopped by the addition of 4.0 ml of GVBS^−−, centrifuged for 5 minutes at 1,620×g, and the absorbance of the supernatants was read at 412 nm in a spectrophotometer. The percent lysis of each sample was standardized to that of the serum only control.
(§4) The final concentration of peptide in factor B-depleted serum was 0.77 mM. […] In the hemolytic assay, soluble peptides were standardized to water and insoluble peptides standardized to DMSO.
(§5) The final concentration of peptide in factor B-depleted serum was 0.77 mM. […] In the hemolytic assay, soluble peptides are standardized to water and insoluble peptides standardized to DMSO.

In data set [2] the test system is complement activation in factor B-depleted human sera. It counts as biochemical. The following applies: 0.77 mM peptide in factor B-depleted serum; standardized to water or DMSO; Table 7. Here is the method:
as §1, §2, §3, §4, §5

Data set [3] is described as follows: Single-dose toxicology, maximum deliverable dose. The format is in vivo, rat. The settings on record: 60 mg [240 mg/kg] i.v.
The conditions of data set [4]: 40 mg [160 mg/kg] i.v.
Source text: Eight animals were sacrificed at day 3, and ten were sacrificed at day 14.
A short description of the next data set: Solubility in water. The format is physicochemical. The settings on record: Table 7, PEGylated and Sar/Ala substitution peptides.
Data set [5] in a line: Complement-mediated hemolysis of type B erythrocytes by type O donor plasma (ATR in vitro model). It counts as biochemical, human. The following applies: highly hemolytic type-O plasma, dose-response, maximum. Here is the method: Plasma from both donors were diluted with GVBS++ (veronal buffered saline with 0.1% gelatin, 0.15 mM CaCl2 and 1 mM MgCl2) and incubated with purified erythrocytes from a B+ donor at 37° C. for 1 hour. Free hemoglobin was measured by spectrophotometer at 412 nm.

Data set [6] concerns hypoxic ischemic brain injury. The format is in vivo, Wistar rat. The following applies: CVF injection before ligation/hypoxia.
Data set [7] concerns complement-mediated hemolysis of transfused huRBCs. Description: Rat AIHTR model, xenotransfusion of human RBCs. The format is in vivo, Wistar rat. The settings on record: prophylaxis; 40 mg PA-dPEG24 vs NS at 5 and 20 minutes (P≤0.05); CVF 130 μg i.p. 24 hours before.
Procedure: This process generates 1 ml huRBCs at 80% hematocrit, which was given as a 15% transfusion to the rats.
For both experiments, animals allotted to the saline control group received NS prior to huRBC transfusion whereas the CVF group received 130 μg CVF (Complement Technologies, Inc.) intra-peritoneum (LP.) 24 hours prior to the huRBC transfusion.
Using weight-based doses of ketamine and acepromazine, animals were sedated throughout the course of the experiment with periodic monitoring of vital signs. Blood samples were collected into EDTA microtainer tubes (BD) from the animals prior to the huRBC transfusion and then at 30 seconds, 5 minutes, 20 minutes, 60 minutes and 120 minutes after the huRBC transfusion. […]
Flow cytometry was performed on the collected RBCs using a FACS Calibur flow cytometer (Becton Dickinson, Franklin Lakes, NJ) with DXP 8 Color 488/637/407 Upgrade (Cytek Development, Fremont, CA). […] Data was analyzed using FlowJo X version 10.0.7r2 (FlowJo LLC, Ashland, OR). […]
For bilirubin measurements, the pre-bleed and 120 minute plasma samples from the prophylaxis (n=8) and NS (n=7) groups were analyzed for the amount of bilirubin present using the Bilirubin Assay Kit (Sigma-Aldrich, St. Louis, MO) in half the manufacturer's recommend volume. […]

`Nc1nc2c(ncn2COCCO)c(=O)[nH]1` [Acyclovir]: in the data set on HSV-1, the “Inhibition of HSV-1 replication” value is recorded as “never able to completely inhibit replication”.
`CC[C@H](C)[C@H](N)C(=O)N[C@@H](C)C(=O)N[C@@H](CC(C)C)C(=O)N[C@H](C(=O)N[C@@H](CC(C)C)C(=O)N[C@@H](CCC(=O)O)C(=O)N1CCC[C@H]1C(=O)N[C@H](C(=O)N[C@@H](CS)C(=O)N[C@@H](CS)C(=O)N[C@@H](CCC(N)=O)C(=O)N[C@@H](CCC(=O)O)C(=O)N[C@@H](CCCNC(=N)N)C(=O)N[C@@H](C)C(=O)N[C@@H](C)C(=O)NCCOCCOCCOCCOCCOCCOCCOCCOCCOCCOCCOCCOCCOCCOCCOCCOCCOCCOCCOCCOCCOCCOCCOCCOCCC(=O)O)[C@@H](C)CC)[C@@H](C)CC` [PA-dPEG24] showed a hemolysis in data set [1] of 2.99%. In data set [2], the “Hemolysis (%)” value worked out at 2.99%. For the same compound, in data set [3] (48 Hr (n = 6)), the ALT worked out at 44.0 U/L, the AST is 69.0 U/L, the AlkPhos is 194 U/L and the BUN was 15.8 mg/dL. In [3] (48 Hr (n = 6)), this compound registered a Bilirubin of 0.1 mg/dL, a CPK of 142 U/L, a Creatinine of 0.3 mg/dL and a GGT of 1 U/L. In [3] (48 Hr (n = 6)), the Lipase was found to be 10.3 U/L, the Platelets is 1045 10^3/μL and the RBC is on record as 5.3 10^6/μL. Further, in data set [3] (Day 7 (n = 6)), the ALT was 76.3 U/L, the AST came to 84.3 U/L, the AlkPhos came out at 147 U/L and the BUN was determined as 13.5 mg/dL. In [3] (Day 7 (n = 6)), this compound showed a Bilirubin of 0.1 mg/dL, a CPK of 316 U/L, a Creatinine of 0.4 mg/dL and a GGT of 1 U/L. For the same compound, in data set [3] (Day 7 (n = 6)), the Lipase turned out to be 8.5 U/L, the Platelets was 623 10^3/μL and the RBC is recorded as 5.8 10^6/μL. In [3] (Day 14 (n = 6)), this compound yielded an ALT of 55.8 U/L, an AST of 104 U/L, an AlkPhos of 154 U/L and a BUN of 14.7 mg/dL. In data set [3] (Day 14 (n = 6)), this compound yielded a Bilirubin of 0.1 mg/dL, a CPK of 580 U/L, a Creatinine of 0.4 mg/dL and a GGT of 1 U/L. Besides, in [3] (Day 14 (n = 6)), the Lipase is recorded as 9.7 U/L. In addition, the “Blood work (CBC and complete blood chemistry) toxicities” value in data set [3] (first 24 hours, 48 hours, day 7 or day 14) is “No toxicities”. In data set [4] (48 Hr (n = 8)), this compound had an ALT of 62.8 U/L, an AST of 108 U/L, an AlkPhos of 104 U/L and a BUN of 17.8 mg/dL. In data set [4] (48 Hr (n = 8)), this compound yielded a Bilirubin of 0.1 mg/dL, a CPK of 538 U/L, a Creatinine of 0.3 mg/dL and a GGT of 1.0 U/L. Also, in data set [4] (48 Hr (n = 8)), the Lipase was found to be 11.8 U/L, the Platelets is given as 987 10^3/μL and the RBC is listed as 5.8 10^6/μL. In data set [4] (Day 14 (n = 10)), the ALT was determined as 77.4 U/L, the AST is on record as 111 U/L, the AlkPhos came out at 115 U/L and the BUN worked out at 13.2 mg/dL. In [4] (Day 14 (n = 10)), this compound returned a Bilirubin of 0.1 mg/dL, a CPK of 592 U/L, a Creatinine of 0.3 mg/dL and a GGT of 1.1 U/L. In data set [4] (Day 14 (n = 10)), the Lipase came to 6.4 U/L, the Platelets is recorded as 825 10^3/μL and the RBC is 6.6 10^6/μL. Moreover, the Organ histology entry in data set [4] (day 3 and day 14) was “no histological evidence for toxicity”. The “Blood chemistry assay results (CBC, superchem, coagulation)” value in data set [4] (pretreatment vs day 3 or day 14) is listed as “no differences”. Further, in “Solubility in water”, the Solubility in water entry is reported as “Yes”. Besides, the percent inhibition of hemolysis in data set [5] was greater than 95%.
cobra venom factor [CVF]: in data set [6], the “Systemic complement activity and brain injury” value is on record as “almost completely eliminated; also recorded: almost completely attenuated brain injury”. Further, the “Free hemoglobin in plasma” value in data set [7] is recorded as “low levels of free hemoglobin”.
